From ChEMBL document CHEMBL1155013, “Design, synthesis, and evaluation of fused heterocyclic analogs of SCH 58261 as adenosine A2A receptor antagonists” (Bioorg Med Chem Lett, 2008)

Columns and labels:
Type in all cases: ADME, organism-based
[1] = AUC (0 to 6 hrs) in rat at 3 mg/kg, po; set-up: time < 6 hr, dose 3 mg/kg, route oral; settings: plasma
[2] = AUC in rat at 3 mg/kg, po; set-up: dose 3 mg/kg, route oral; settings: plasma
[3] = Plasma clearance in rat at 3 mg/kg, po; set-up: dose 3 mg/kg, route oral
[4] = Bioavailability in rat at 3 mg/kg, po; settings: in vivo
[5] = Half life in rat at 3 mg/kg, po; set-up: dose 3 mg/kg, route oral; settings: in vivo

Row | Structure (SMILES) | AUC(0-t) at 6 h [1] [ng·h/mL] | also measured
1 | COc1ccc2c(c1)CCN(CCn1ncc3c1nc(N)n1nc(-c4ccco4)nc31)C2 | 688 | 
2 | COc1ccc2c(c1)CN(CCn1ncc3c1nc(N)n1nc(-c4ccco4)nc31)CC2 | 357 | 
3 | COCCOc1cccc2c1CN(CCn1ncc3c1nc(N)n1nc(-c4ccco4)nc31)C2 | 215 | 
4 | COc1ccc2c(c1)CN(CCn1ncc3c1nc(N)n1nc(-c4ccco4)nc31)C2 | 199 | 
5 | Nc1nc2c(cnn2CCN2CCc3ccccc3C2)c2nc(-c3ccco3)nn12 | 60 | 
6 | Nc1nc2c(cnn2CCN2CCc3ncc(C4CC4)cc3C2)c2nc(-c3ccco3)nn12 | 214 | 
7 | Nc1nc2c(cnn2CCN2CCc3ncc(Br)cc3C2)c2nc(-c3ccco3)nn12 | 2020 | 
8 | COCCOc1cnc2c(c1)CN(CCn1ncc3c1nc(N)n1nc(-c4ccco4)nc31)CC2 | 477 | 
9 | COCCOc1ccc2c(c1)CCN(CCn1ncc3c1nc(N)n1nc(-c4ccco4)nc31)CC2 | 103 | 
10 | Nc1nc2c(cnn2CCN2CCc3ncccc3C2)c2nc(-c3ccco3)nn12 | 1790 | 
11 | Nc1nc2c(cnn2CCN2Cc3ccccc3C2)c2nc(-c3ccco3)nn12 | 287 | 
12 | Nc1nc2c(cnn2CCN2CCc3ccccc3CC2)c2nc(-c3ccco3)nn12 | 48 | 
13 | Nc1nc2c(cnn2CCN2CCc3nc(C(F)(F)F)ccc3C2)c2nc(-c3ccco3)nn12 | 1240 | 
14 | COCCOc1cccc2c1CN(CCn1ncc3c1nc(N)n1nc(-c4ccco4)nc31)CC2 | 31 | 
15 | Nc1nc2c(cnn2CCN2CCc3ncncc3C2)c2nc(-c3ccco3)nn12 | 467 | 
16 | Cc1cnc2c(c1)CN(CCn1ncc3c1nc(N)n1nc(-c4ccco4)nc31)CC2 | 3490 | AUC [2]: 7980 ng·h/mL; CL/F [3]: 4.7 mL/min/kg; bioavailability [4]: 71%; half-life [5]: 11.3 h
